Experimental data as given in patent US20220290196A1, “GENETICALLY ENGINEERED MICROBES AND BIOSYNTHETIC METHODS” (The Regents of the University of California, priority 2019, published 2022).
Several values for one entry are separate records, joined by “and”; a condition that tells them apart may be missing. Equal entries are not always repeated.

B1: Saccharomonospora sp. CNQ-490 Tar13 (tryptophan 2,3-dioxygenase), wild type, SEQ ID NO: 1 (expressed SEQ ID NO: 2) (Saccharomonospora piscinae) (protein)
chain: MTERTATRTEPAYGEILRLDELLELACVNDEADRALFLSAHQACEIWFAVVLRHLEDVTDALSLDDGATAAELLERLPRIITVIIEHFEVLGTLKPEAFDRIRADLGSSSGFQSVQYREIEYLCGARDTRFLNTAGFRDRDRRRLRERLAKRSLSNVFLEYRGRAGDRDACRISDALHEFDDSVRALRLRHAGIAELFLGSIPGTAGTAGAAYLRRSASRTLFPELFDRRASGTGG

Tests used:
[1] = tested on: Tar14; test: Tar14 in vitro halogenation assay with substrate analogues; format: biochemical, Saccharomonospora sp. CNQ-490; settings: substrate 0.25 mM, Tar14 5 μM, 30° C., 4 h; for Enzyme assays, % conversion, Tar14, Br^−: KBr 100 mM; for Enzyme assays, % conversion, Tar14, Cl^−: NaCl 100 mM
Protocol: Tar14. Tar14 reaction mixture of total volume 100 μL in 1.5 mL Eppendorf tube was composed of the following components:
Buffer (10 mM Tris, 10% glycerol, pH 7.6): up to 100 μL

[2] = tested on: Tar13; test: Tar13 in vitro assay with substrate analogues; format: biochemical, Saccharomonospora sp. CNQ-490; settings: for Enzyme assays, % conversion, Tar13: substrate 0.25 mM, Tar13 20 μM, overnight at 30° C.
Protocol: Tar13. Upon testing different reaction compositions (buffers, concentration of ascorbic acids and hemin, pH), the following conditions were found as optimal:
(§1) Buffer: up to 50 μL (50 mM Tris, 500 mM NaCl 10% glycerol, pH 8.0)
(§2) In a separate Eppendorf tube premix:
Add substrate solution to the enzyme mixture to start reaction
When Tar13 was directly added to the enzyme reaction, immediate protein precipitation occurred. The same was observed if the enzyme was not pre-mixed with hemin and ascorbic acid. Full substrate conversion was achieved after overnight incubation at 30° C. in 1.5 mL Eppendorf tube with shaking. The reactions were quenched by addition of equal volume of HPLC grade methanol.

[3] = tested on: Tar16; test: Coupled Tar13/Tar16 assay (Tar16 substrate generated in situ by Tar13); format: biochemical, Saccharomonospora sp. CNQ-490; settings: for Enzyme assays, % conversion, Tar16: substrates generated in situ by Tar13, Tar16 10 μM, overnight at 30° C.
Protocol: Coupled Tar13 Tar]6. The reaction mixture of total volume 100 μL in 1.5 mL Eppendorf tube was composed of the following components:
Buffer: up to 50 μL (50 mM Tris, 500 mM NaCl 10% glycerol, pH 8.0
Substrate (for Tar13 enzyme): 0.25 μM
as §2
Buffer: up to […] (50 mM Tris, 500 mM NaCl 10% glycerol, pH 8.0)
Add substrate solution to the enzyme mixture to start reaction.
No difference in conversion was observed when Tar16 was added into the assay mixture either together with Tar13, or after 2 h of incubation at 30° C., or after overnight incubation at 30° C., followed by another 4 h of incubation after addition of Tar16. Therefore, for convenience, all components were mixed at the same time point, the reactions were incubated at 30° C. overnight, after which the assays were quenched by addition of equal volume of HPLC grade methanol.

[4] = tested on: S. coelicolor M1146-tarM1Δtar14; test: Feeding/chemical complementation experiment, incorporation into taromycin; format: cell-based, Streptomyces coelicolor; settings: for Feeding, % incorporation, A1 + A13 domain: incorporation at residue-1 and residue-13; for Feeding, % incorporation, A1 + A13 domain / Feeding, % incorporation, A1 domain: analogue fed at 2 mM, judged by comparison to taromycin yields by S. coelicolor M1146-tarM1; for Feeding, % incorporation, A1 domain: incorporation only at residue-1
Protocol: For taromycin production, seed culture in TSBY medium was inoculated with corresponding S. coelicolor spore suspension (collected from fresh SFM plates) and was cultured for 36-48 h till a dense creamy consistency was reached. Kanamycin at 10 μg mL^−1 final concentration was added to the seed cultures of S. coelicolor M1146-pCAP01-tarM1 and S. coelicolor M1146-pCAP01-tarM1Δtar14. Inocula of seed culture (5%, v/v) were used for fermentation in MP medium (1% glucose, 1% soluble starch, 0.4% peptone, 0.3% yeast extract, 0.3% soytone, 0.2% meat extract, 0.2% CaCO3, and 0.5% NaCl, pH 7.2). Fermentation was carried out at 30° C. and 220 rpm in a rotary incubator for 6 days. A maximum of 40 mL of production medium was added into 250 mL flask with metal springs.
S. coelicolor M1146-pCAP01-tarM1Δtar14 cultures were grown as described in Section 3 for taromycin production. After 18 and 36 h of cultivation, tryptophan analogues in the form of water suspension were added to the production cultures to a final concentration 2 mM. The cultures were further incubated for 5 days before extraction and further analysis by LC-HRMS^n. All experiments were repeated independently twice with three replicates for each compound. In parallel, cultures of S. coelicolor M1146-pCAP01-tarM1 and S. coelicolor M1146-pCAP01-tarM1Δtar14 were grown as controls.
To analyze production of taromycins and analogues, solid phase extraction of the culture supernatants was performed with Amberlite XAD-16 resin (SIGMA). For analytical purposes around 1 g of washed and equilibrated resin was added to 20 mL of supernatant followed by shaking for 30-60 min. Samples were then spun down and decanted. The resin was washed twice with water (15 mL), before elution with methanol (5 mL). The methanol extracts from the resin were used for LCMS analysis without additional concentration step.

[5] = tested on: Tar14, Tar13, and Tar13/16; test: In vitro assays with Tar14, Tar13, and Tar13/16 (FIG. 20 summary); format: biochemical, Saccharomonospora sp. CNQ-490; settings: Tar14, Tar13, Tar13/16
[6] = substrate: N[C@@H](Cc1c[nH]c2cc(Cl)ccc12)C(=O)O; test: Kinetic characterization of Tar13-catalyzed oxidation of L-6-Cl-tryptophan; format: biochemical, Saccharomonospora sp. CNQ-490; settings: other: Tar13, L-6-Cl-Trp, 30° C., pH 8.0
Protocol: To determine kinetic parameters for Tar13-catalyzed oxidation of L-6-Cl-tryptophan, the following reaction conditions were used:
as §1, §2
The enzyme mixture was added to the substrate solution to start the reactions. The reactions were incubated at 30° C. for 5, 10, 15, 30 min, after which the assays were quenched by addition of equal volume of HPLC grade methanol and frozen at −70° C. till further analysis by HPLC. All assays were performed in triplicates for each substrate concentration and every time point. In parallel, for each time point and substrate concentration, assays with no added enzyme were used as controls. Prior HPLC analysis (method 5), L-tryptophan was added to the quenched reaction mixtures as an internal standard for quantification.
Product formation was quantitated by calculating decrease of the area of the remaining substrate in comparison to the substrate peak area in the control with no enzyme added, and the ratio of peak areas to internal standard were fitted into a calibration curve to determine product concentrations.

Molecule | Enzyme assays, % conversion, Tar14, Br^− [1] [%] | Enzyme assays, % conversion, Tar14, Cl^− [1] [%] | Enzyme assays, % conversion, Tar13 [2] [%] | Enzyme assays, % conversion, Tar16 [3] [%] | Feeding, % incorporation, A1 domain [4] [%] | further results
Nc1cc(Cl)ccc1C(=O)CC(N)C(=O)O [Compound 1, L-4-chlorokynurenine] | 5 | <1 |  |  |  | 
Nc1ccccc1C(=O)C[C@H](N)C(=O)O [Compound 5, L-kynurenine] | 30 | 30 |  |  |  | 
N[C@@H](Cc1c[nH]c2cc(Cl)ccc12)C(=O)O [Compound 7, L-6-Chlorotryptophan] | <5 |  | 100 | 100 |  | Conversion/activity as substrate for Tar13 [2]: complete conversion; Conversion in coupled Tar13/Tar16 reaction ([3]; Tar16 added to Tar13 reaction): full conversion; Chemical complementation of taromycin production ([4]; S. coelicolor M1146-tarM1Δtar14 mutant fed with compound): restored taromycin production; Feeding, % incorporation, A1 + A13 domain [4]: 100%
N[C@@H](Cc1c[nH]c2ccc(Br)cc12)C(=O)O [Compound 8, L-5-Bromotryptophan] |  | <1 | <1 | 100 | 50 | 
N[C@@H](Cc1c[nH]c2cc(Br)ccc12)C(=O)O [Compound 9, L-6-bromotryptophan] | <1 |  | 100 | 100 |  | Feeding, % incorporation, A1 + A13 domain [4]: 20%
N[C@H](Cc1c[nH]c2ccccc12)C(=O)O [Compound 11, D-tryptophan] | 20 | 15 | <1 | 40 |  | 
N[C@@H](Cc1c[nH]c2cccc(Br)c12)C(=O)O [Compound 12, L-4-bromotryptophan] | <5 | <1 |  |  |  | 
N[C@@H](Cc1c[nH]c2ccc(Cl)cc12)C(=O)O [Compound 14, D/L-5-chlorotryptophan] | <1 | <1 | <1 | 100 | 30 | 
N[C@@H](Cc1c[nH]c2cccc(F)c12)C(=O)O [Compound 15, D/L-4-fluorotryptophan] | 15 | 10 |  |  | 15 | Feeding, % incorporation, A1 + A13 domain [4]: 15%
N[C@@H](Cc1c[nH]c2cc(F)ccc12)C(=O)O [Compound 16, D/L-6-fluorotryptophan] | 25 | 25 | 5 | 100 | <5 | Feeding, % incorporation, A1 + A13 domain [4]: 90%
Cc1cccc2[nH]cc(C[C@H](N)C(=O)O)c12 [Compound 17, D/L-4-methyltryptophan] | 75 | 100 |  |  | 40 | 
Cc1ccc2[nH]cc(C[C@H](N)C(=O)O)c2c1 [Compound 18, D/L-5-methyltryptophan] | 25 | 50 | <1 | 70 | 35 | 
NC(Cc1c[nH]c2ccc([N+](=O)[O-])cc12)C(=O)O [Compound 21, D/L-5-NO2-Trp] |  |  |  |  | 60 | 
NCCc1c[nH]c2ccc(O)cc12 [Compound 22, serotonine] |  |  |  |  |  | Conversion by any of the enzymes [5]: not converted by any of the enzymes
N[C@@H](Cc1ccc(O)cc1)C(=O)O [Compound 23, L-tyrosine] |  |  |  |  |  | Conversion by any of the enzymes [5]: not converted by any of the enzymes
N[C@@H](Cc1ccccc1)C(=O)O [Compound 24, L-phenylalanine] |  |  |  |  |  | Conversion by any of the enzymes [5]: not converted by any of the enzymes
L-5-CH3O-Trp [Compound 19] | <5 | <1 | <1 | 100 | 15 | 
L-5-OH-Trp [Compound 20] | <1 | 5 |  |  | 10 | 
L-7-Br-Trp [Compound 13] | 100 | 100 |  |  | <5 | 
B1 |  |  |  |  |  | Vmax [6]: 0.061 ± 0.006 µM/s; kcat [6]: 0.03 s⁻¹ and 0.031 ± 0.003 s⁻¹
